Assay [1] deals with Medial smooth muscle cells (SMC) from rat aorta. In words: Inhibition of SMC proliferation (thymidine incorporation). The following applies: read-out: IC50 (concentration at which 50% of the cells stop proliferating). It counts as cell-based. The method, then:
Medial smooth muscle cells (SMC) were isolated from rat aorta and cultured according to explant methods known to one of ordinary skill in the art. Cells were harvested via trypsinization and subcultivated. Cells were identified as vascular SMC through their characteristic hill-and-valley growth pattern as well as indirect immunofluorescence with monoclonal anti SMC α-actin. Studies were performed with cells at passage 3-4. SMC monlayers were established on 24 well culture dishes, scrape wounded and treated with actinomycin D, mytomycin and docetaxel. The cells were exposed to the drug solution of different concentrations for 2 hours and then washed with buffered saline solution. The proliferation of the cells was quantified by standard technique of thymidine incorporation.
The IC50 (concentration at which 50% of the cells stop proliferating) of actinomycin D was 10^−9M as compared to 5×10^−5M for mitomycin and 10^−6M for docetaxel.

Assay [2] deals with neointimal formation in the coronary arteries. Put plainly: Porcine coronary stent injury model, drug delivered with microporous balloon catheter. It counts as in vivo, Domestic swine. The method, then:
Porcine coronary models were used to assess the degree of the inhibition of neointimal formation in the coronary arteries of a porcine stent injury model by Actinomycin D, delivered with a microporous balloon catheter (1×10^6 pores/cm^2 with size ranging from 0.2-0.8 micron).
The preclinical animal testing was performed in accordance with the NIH Guide for Care and Use of Laboratory Animals. Domestic swine were utilized to evaluate effect of the drug on the inhibition of the neointimal formation. Each testing procedure, excluding the angiographic analysis at the follow-up endpoints, was conducted using sterile techniques. During the study procedure, the activated clotting time (ACT) was monitored regularly to ensure appropriate anticoagulation. Base line blood samples were collected for each animal before initiation of the procedure. Quantitative coronary angiographic analysis (QCA) and intravascular ultrasound (IVUS) analysis was used for vessel size assessment.
The vessels at the sites of the delivery were denuded by inflation of the PTCA balloons to 1:1 balloon to artery ratio and moving the balloons back and forth 5 times. Actinomycin D was delivered to the denuded sites at 3.5 atm (3.61 kg/sq. cm) for 2 minutes using the microporous balloon catheters before stent deployment. The average volume of delivery was about 3.3+/−1.2 ml. Following drug delivery, stents were deployed at the delivery site such that final stent to artery ratio was 1.1:1.
QCA and IVUS analyses were used for stent deployment guidance. Pre-stenting IVUS measurements of the lumen size at the targeted vessel sites were performed for determination of the balloon (size) inflation pressure. Quantitative analysis of the stented coronary arteries to compare pre-stenting, post-stenting, follow-up minimal luminal diameters, stent recoil, and balloon/stent to artery ratio were performed. Following stent implantation and final angiogram, all devices were withdrawn and the wounds closed; the animals were allowed to recover from anesthesia as managed by the attending veterinarian or animal care professionals at the research center.
Upon return to the research laboratory at the 28-day endpoint, angiographic assessments were performed. Coronary artery blood flow was assessed and the stented vessels were evaluated to determine minimal lumen diameter. The animals were euthanized following this procedure at the endpoint. Following euthanasia, the hearts were pressure perfusion fixed with formalin and prepared for histological analysis, encompassing light microscopy, and morphometry. Morphometric analysis of the stented arteries included assessment of the position of the stent struts and determination of vessel/lumen areas, percent (%) stenosis, injury scores, intimal and medial areas and intima/media ratios. Percent stenosis is quantitated by the following equation: 100(IEL area−lumen area)/IEL area where IEL is the internal elastic lamia.
The control group of animals received delivery of water instead of the drug. The test group of animals received actinomycin D in two different concentration of 10^−5M and 10^−4M. […] FIGS. 2A and 2B illustrate sample pictures of the histology slides of the coronary vessels from the control and the Dose 1 group, respectively.

In assay [3] the test system is porcine coronary arteries (EEL/IEL area). In words: Positive remodeling by stents coated with EVAL impregnated with actinomycin D in porcine coronary arteries. Type of assay: in vivo. An excerpt:
“Positive remodeling” is generally defined as the ability of the vessel walls to structurally adapt, by increasing in lumen size, to chronic stimuli. A positively remodeled lumen wall has a greater diameter or size as compared to a lumen wall which has not been subjected to the remodeling effect. Accordingly, the flow of blood through the remodeled site is increased—flow which would have otherwise been reduced because of, for example, the presence of plaque build-up or migration and proliferation of cells. The index of remodeling is defined by the ratio of the area circumscribed by the external elastic lamia (EEL) of the lesion site to the area circumscribed by the EEL of a reference site. As a result of the positive remodeling of the EEL, the internal elastic lamina (IEL), in response, can also increases in area or diameter.
In vivo data is provided illustrated positive remodeling caused by the application of actinomycin D. Stents coated with EVAL impregnated with actinomycin D and a control group of stents coated with EVAL free from actinomycin D were implanted in porcine coronary arteries. The animals were sacrificed at the end of 28 days. […] The index of remodeling was 1.076 (8.54/7.94).
FIGS. 3A and 3B illustrate sample pictures of the histology slides of the coronary vessels from the control group 64 RCA ([…]) and the actinomycin D loaded stent group 68 LAD (Left Anterior Descending), respectively. The stent used was an Advanced Cardiovascular Systems Multi-Link Duet™ (stainless steel). As is illustrated by FIG. 3B, the positive remodeling of IEL 10, caused by the application of actinomycin D, creates a gap between stent struts 12 and IEL 10. Thrombus deposites, illustrated by reference number 14, are formed in the gap over time. The use of a self-expandable stent eliminates the formation of the gap as the stent self-expands in response to the positive remodeling of IEL. Thrombus deposits can be, accordingly, eliminated.

The mark [4] stands for this setting: Dose 1, 1E−05 M, n = 30, 28-day endpoint.
The mark [5] stands for this setting: Dose 2, 1E−04 M, n = 21, 28-day endpoint.
The mark [6] stands for this setting: average of 24 vessel sections, 28 days.
Setting [7] is: one value per vessel section (ID # in the cell to the left), 28 days.
Setting [8] is: rat aortic SMC, scrape wounded, 2 hours drug exposure, thymidine incorporation.

3 compounds from US7651695B2, “Medicated stents for the treatment of vascular disease” (Advanced Cardiovascular Systems, Inc., priority 2001, dated 2010) can be followed below.

Several values for one entry are separate records, joined by “and”; a condition that tells them apart may be missing. Equal values may be shown once. Read-outs that look alike come from different tables or passages of the source. Starred links: 1 amine or outer side, 2 acyl side, 3 side chain; linkers in the order of their positions; H or OH if unused. Positions of bridges follow the written chain, without caps; N, C: chain ends. Non-standard residues stand in square brackets, D forms with d. Residues, ends and D or L forms follow the SMILES beside them. Chains are numbered I, II in the order given. Actinocin(9to1) = Cc1c2oc3c(C)ccc(C(=O)[*:1])c3nc-2c(C(=O)[*:2])c(N)c1=O; NMeV = CN[C@H](C(=O)O)C(C)C; Sar = CNCC(=O)O

Regarding `Cc1c2oc3c(C)ccc(C(=O)N[C@@H]4C(=O)N[C@H](C(C)C)C(=O)N5CCC[C@H]5C(=O)N(C)CC(=O)N(C)[C@@H](C(C)C)C(=O)O[C@@H]4C)c3nc-2c(C(=O)N[C@@H]2C(=O)N[C@H](C(C)C)C(=O)N3CCC[C@H]3C(=O)N(C)CC(=O)N(C)[C@@H](C(C)C)C(=O)O[C@@H]2C)c(N)c1=O` [actinomycin D] (I: T[dV]P[Sar][NMeV] / II: T[dV]P[Sar][NMeV]; ester I:1-I:C, II:1-II:C; linker I:N-II:N via Actinocin(9to1)), the IC50 in assay [1] (Rattus norvegicus, 2 h) came to 0.001 µM. The “Percent Diameter Stenosis, angiographic data (QCA)” value in assay [2] (Dose 1, 1E−05 M, n = 10, 28-day endpoint) was 36.8 +/− 9.7%. In addition, in assay [2] (setting [4]), the “Percent Stenosis (IEL area-lumen area)/IEL area, histomorphometric data” value was 51.8 +/− 13.8% and the “Residual Lumen (Lumen area)/IEL area, histomorphometric data” value is reported as 0.49 +/− 0.14. Moreover, the “Percent Diameter Stenosis, angiographic data (QCA)” value in assay [2] (Dose 2, 1E−04 M, n = 7, 28-day endpoint) was 32.3+/−11.7%. In addition, in assay [2] (setting [5]), the “Percent Stenosis (IEL area-lumen area)/IEL area, histomorphometric data” value was 54.1 +/− 11.7% and the “Residual Lumen (Lumen area)/IEL area, histomorphometric data” value is given as 0.46 +/− 0.08. Also, the “EEL area compared with control vessels” value in assay [3] (28 days, actinomycin D-loaded vessels vs control vessels) is reported as “statistically significantly greater”. Moreover, in assay [3] (ActD vs EVAL), the “AVG % EEL growth” value was 7.486% and the “AVG % IEL growth” value came out at 13.18%. Moreover, the index of remodeling in assay [3] (EEL area ratio 8.54/7.94, actinomycin D-loaded vs EVAL control) turned out to be 1.076. For the same compound, in assay [3] (setting [6]), the “EEL Area, AVG” value came to 8.5425 mm^2 and the “IEL Area, AVG” value stood at 7.4727 mm2. Further, in assay [3] (setting [7]), the “EEL Area, individual vessel section” value was 7.4498 mm^2 and 8.2509 mm^2 and 7.7342 mm^2 and 7.9207 mm^2 and 6.9926 mm^2 and 8.3883 mm^2 and 7.8546 mm^2 and 9.2545 mm^2 and 9.2515 mm^2 and 8.7854 mm^2 and 9.5164 mm^2 and 9.1504 mm^2 and 9.6679 mm^2 and 9.1237 mm^2 and 9.9849 mm^2 and 9.4765 mm^2 and 7.4424 mm^2 and 9.1462 mm^2 and 8.9504 mm^2 and 8.9117 mm^2 and 8.7533 mm^2 and 7.3249 mm^2 and 7.1061 mm^2 and 8.5830 mm^2; the “IEL Area, individual vessel section” value was 6.3785 mm2 and 7.5206 mm2 and 6.9992 mm2 and 6.9632 mm2 and 6.0418 mm2 and 7.4794 mm2 and 6.2324 mm2 and 8.3785 mm2 and 8.5819 mm2 and 8.0964 mm2 and 8.6879 mm2 and 8.0914 mm2 and 8.7181 mm2 and 8.0273 mm2 and 8.5222 mm2 and 8.3796 mm2 and 6.4219 mm2 and 7.7757 mm2 and 7.5392 mm2 and 7.6573 mm2 and 6.9749 mm2 and 6.2815 mm2 and 5.9760 mm2 and 7.6195 mm2.

As to `CC(=O)O[C@@]12CO[C@@H]1C[C@H](O)[C@@]1(C)C(=O)[C@H](O)C3=C(C)[C@@H](OC(=O)[C@H](O)[C@@H](NC(=O)OC(C)(C)C)c4ccccc4)C[C@@](O)([C@@H](OC(=O)c4ccccc4)[C@H]21)C3(C)C` [docetaxel], the IC50 in assay [1] (setting [8]) was 1 µM.

In the case of `CO[C@@]12[C@H](COC(N)=O)C3=C(C(=O)C(C)=C(N)C3=O)N1C[C@@H]1N[C@@H]12` [mitomycin], the IC50 in assay [1] (setting [8]) turned out to be 50 µM.
